# Values joined by “and” are separate entries in the source; they are usually repeats but may differ in a detail not shown here. Identical values can stand only once. Counter-ions that a name gives are not always drawn. Like-named read-outs stand apart in the source and are kept apart here.
# Assays:
# 2019-nCoV S protein = 2019-nCoV S protein (Severe acute respiratory syndrome coronavirus 2, UniProt P0DTC2); assay type: binding, SARS-CoV-2; details: for ΔTm: 100 µM
# 2019-nCoV S-RBD = 2019-nCoV S-RBD (Severe acute respiratory syndrome coronavirus 2, UniProt P0DTC2); assay type: binding, SARS-CoV-2
# HEK293T cells = assay type: cell-based
# [1] = target: 2019-nCoV S protein–hACE2 complex (Severe acute respiratory syndrome coronavirus 2, UniProt P0DTC2); assay type: cell-based, SARS-CoV-2; human
# 2019-nCoV pseudovirus = assay type: cell-based, SARS-CoV-2
# [2] = system: Delta (B.1.617.2) pseudovirus; assay type: cell-based, SARS-CoV-2
# Omicron BA.5 pseudovirus = assay type: cell-based, SARS-CoV-2
# [3] = read-out: KD (equilibrium dissociation constant)
# [4] = read-out: IC50 (concentration inducing 50% cell death)
ΔTm (2019-nCoV S protein),Kd (2019-nCoV S-RBD; [3]) [µM],Tm (2019-nCoV S protein) [°C],Compound,CETSA classification (2019-nCoV S protein),Fold-change ratio of soluble S-protein band intensity relative to controls (2019-nCoV S protein),Kd (2019-nCoV S-RBD; read-out: KD),Kd (2019-nCoV S-RBD; read-out: Mean KD ± SD) [µM],Cell viability (HEK293T cells),CC50 (HEK293T cells; read-out: Cytotoxicity CC50) [µM],Reduction in S-protein pull-downs [1] [%],Reduction in hACE2 pull-downs [1] [%],Effect on pseudovirus entry (2019-nCoV pseudovirus),IC50 (2019-nCoV pseudovirus) [µM],Effect on pseudovirus entry [2],IC50 [2] [µM],Effect on pseudovirus entry (Omicron BA.5 pseudovirus),IC50 (Omicron BA.5 pseudovirus) [µM],also measured
−6.1 °C,11.4,43.4,Bacitracin zinc [BZ],–,–,–,–,–,–,61.8,95.7,–,–,–,–,–,–,CC50 (HEK293T cells; [4]): 79.9 µM
+0.7 °C,35,–,melittin,did not meet the positive threshold,2.70 ± 0.52,57 µM and 34.1 µM and 56.8 µM,49.6 ± 12.2,–,2.3,85.1,65.8,reduced entry of all three pseudoviruses at 1.25 μM,1.83,reduced entry of all three pseudoviruses at 1.25 μM,1.99,reduced entry of all three pseudoviruses at 1.25 μM,> 1.25,CC50 (HEK293T cells; [4]): 2.3 µM; Selectivity Index (SI) (2019-nCoV pseudovirus): 1.26; Therapeutic index (SI) (2019-nCoV pseudovirus): ~ 1.2; Selectivity Index (SI) [2]: 1.16; Selectivity Index (SI) (Omicron BA.5 pseudovirus): < 1.84

# The next lines start with the compound.
Compound,ΔTm (2019-nCoV S protein),Kd (2019-nCoV S-RBD; [3]) [µM],Tm (2019-nCoV S protein) [°C],CETSA classification (2019-nCoV S protein),Fold-change ratio of soluble S-protein band intensity relative to controls (2019-nCoV S protein),Kd (2019-nCoV S-RBD; read-out: KD),Kd (2019-nCoV S-RBD; read-out: Mean KD ± SD) [µM],Cell viability (HEK293T cells),CC50 (HEK293T cells; read-out: Cytotoxicity CC50) [µM],Reduction in S-protein pull-downs [1] [%],Reduction in hACE2 pull-downs [1] [%],Effect on pseudovirus entry (2019-nCoV pseudovirus),IC50 (2019-nCoV pseudovirus) [µM],Effect on pseudovirus entry [2],IC50 [2] [µM],Effect on pseudovirus entry (Omicron BA.5 pseudovirus),IC50 (Omicron BA.5 pseudovirus) [µM],also measured
"CC(OC(=O)OC1CCCCC1)OC(=O)C1=C(CSc2nnnn2CC[NH+](C)C)CSC2C(NC(=O)Cc3csc(N)n3)C(=O)N12 (centres unmarked) [CTM-HCl, cefotiam hexetil hydrochloride]",+2.2 °C,142,–,CETSA-positive,1.64 ± 0.21,142 µM,142,above 90%,> 100,32.5,7.9,reduced entry of the ancestral and Omicron strains in a concentration-dependent manner,94.6,marginal and detectable only at 50 μM,> 100,reduced entry of the ancestral and Omicron strains in a concentration-dependent manner,> 100,Selectivity Index (SI) (2019-nCoV pseudovirus): > 1.06
"CCCCCCCCC=CCCCCCCCC(=O)OCC(C[N+](C)(C)C)OC(=O)CCCCCCCC=CCCCCCCCC (centres unmarked) [DOTAP, DOTAP chloride]",+9.1 °C,49.9,–,CETSA-positive,3.49 ± 0.50,79 µM,64.5 ± 20.6,above 90%,–,51.4,46.8,at 25 μM reduced the entry of 2019-nCoV and Omicron pseudoviruses,> 100,limited efficacy against the Delta variant,> 100,at 25 μM reduced the entry of 2019-nCoV and Omicron pseudoviruses,> 100,–
CC(=O)NC1C(OC2c3ccc(c(Cl)c3)Oc3cc4cc(c3OC3OC(CO)C(O)C(O)C3NC(=O)CCCCCCC(C)C)Oc3ccc(cc3Cl)CC3NC(=O)C(N)c5ccc(O)c(c5)Oc5cc(O)cc(c5)C(NC3=O)C(=O)NC4C(=O)NC3C(=O)NC2C(=O)NC(C(=O)O)c2cc(O)cc(OC4OC(CO)C(O)C(O)C4O)c2-c2cc3ccc2O)OC(CO)C(O)C1O (centres unmarked) [teicoplanin],−4.0 °C,–,–,did not meet the positive threshold,–,–,–,above 90%,> 100,52.2,54.4,effective against the ancestral strain at 25–50 μM,> 100,observed only at 100 μM,> 100,reduced Omicron pseudovirus entry in a concentration-dependent manner,> 100,–
DDAVP,−0.7 °C,–,48.9,–,–,–,–,–,–,–,–,–,–,–,–,–,–,–
angiotensin II [Ang II],+5.8 °C,30.7,55.4,–,–,–,–,above 90%,–,–,–,–,–,–,–,–,–,Effect on S-RBD/hACE2 co-immunoprecipitation [1]: did not appreciably reduce
